{"source": "paper PMC3559828", "about": "(PLoS ONE, 2013)", "key": {"Rat α2β2 nAChR": {"target": "T1, Rat α2β2 nAChR (Rattus norvegicus, UniProt P12389+P12390)", "T1 construct": "expressed in transfected cells; host or cells: Xenopus oocytes injected with cRNA", "T1 sequence (P12389 28-511 limits assumed)": "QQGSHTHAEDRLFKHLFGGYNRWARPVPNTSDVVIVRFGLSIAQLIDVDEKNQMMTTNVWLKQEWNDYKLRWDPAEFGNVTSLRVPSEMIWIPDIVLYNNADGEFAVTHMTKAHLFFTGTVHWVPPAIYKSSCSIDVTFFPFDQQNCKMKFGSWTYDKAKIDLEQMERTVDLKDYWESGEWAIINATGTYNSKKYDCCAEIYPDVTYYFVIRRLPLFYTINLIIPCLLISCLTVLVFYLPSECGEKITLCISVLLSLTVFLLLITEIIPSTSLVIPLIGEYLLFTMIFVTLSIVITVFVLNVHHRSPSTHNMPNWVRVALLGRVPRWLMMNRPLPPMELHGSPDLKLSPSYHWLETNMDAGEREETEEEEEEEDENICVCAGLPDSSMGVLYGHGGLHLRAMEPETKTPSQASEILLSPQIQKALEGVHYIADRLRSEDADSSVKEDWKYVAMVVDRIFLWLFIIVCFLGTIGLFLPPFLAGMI", "T1 sequence (P12390 25-500 limits assumed)": "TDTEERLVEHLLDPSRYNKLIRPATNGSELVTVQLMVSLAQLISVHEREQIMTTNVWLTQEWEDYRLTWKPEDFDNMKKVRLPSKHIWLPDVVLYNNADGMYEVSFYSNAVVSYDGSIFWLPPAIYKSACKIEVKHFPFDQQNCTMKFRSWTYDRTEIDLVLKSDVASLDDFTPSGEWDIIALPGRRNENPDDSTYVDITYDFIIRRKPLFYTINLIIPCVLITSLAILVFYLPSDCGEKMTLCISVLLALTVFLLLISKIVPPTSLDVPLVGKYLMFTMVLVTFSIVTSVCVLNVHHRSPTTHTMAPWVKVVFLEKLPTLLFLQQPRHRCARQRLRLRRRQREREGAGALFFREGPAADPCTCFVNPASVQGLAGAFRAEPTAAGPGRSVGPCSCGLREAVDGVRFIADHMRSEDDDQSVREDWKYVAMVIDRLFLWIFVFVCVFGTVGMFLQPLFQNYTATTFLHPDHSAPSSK", "assay": "cell-based"}, "Rat α4β2 nAChR": {"target": "T2, Rat α4β2 nAChR (Rattus norvegicus, UniProt P09483+P12390)", "T2 construct": "expressed in transfected cells; host or cells: Xenopus oocytes injected with cRNA", "T2 sequence (P09483 31-630 limits assumed)": "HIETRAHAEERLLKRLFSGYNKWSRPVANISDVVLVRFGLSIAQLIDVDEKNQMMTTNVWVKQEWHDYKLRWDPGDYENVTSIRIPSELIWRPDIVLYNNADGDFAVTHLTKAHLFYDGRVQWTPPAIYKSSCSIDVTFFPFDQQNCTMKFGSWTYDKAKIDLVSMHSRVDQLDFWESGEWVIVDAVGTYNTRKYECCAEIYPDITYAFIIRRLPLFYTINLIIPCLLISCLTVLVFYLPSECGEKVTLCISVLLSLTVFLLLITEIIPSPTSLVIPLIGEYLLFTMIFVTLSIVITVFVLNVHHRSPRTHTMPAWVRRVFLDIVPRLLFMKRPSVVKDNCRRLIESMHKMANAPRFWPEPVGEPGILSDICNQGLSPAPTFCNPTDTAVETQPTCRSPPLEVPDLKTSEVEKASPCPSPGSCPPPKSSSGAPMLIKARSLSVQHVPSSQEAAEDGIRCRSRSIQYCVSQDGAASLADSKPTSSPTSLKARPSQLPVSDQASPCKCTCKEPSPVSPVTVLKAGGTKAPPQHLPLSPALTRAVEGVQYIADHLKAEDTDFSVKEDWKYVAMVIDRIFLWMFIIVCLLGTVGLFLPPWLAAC", "T2 sequence (P12390 25-500 limits assumed)": "as the sequence (P12390 25-500 limits assumed) above", "assay": "cell-based"}, "Rat α6/α3β2β3 nAChR": {"target": "T3, Rat α6/α3β2β3 nAChR (Rattus norvegicus, UniProt P04757+P12390+P12391+P43143)", "T3 construct": "expressed in transfected cells; host or cells: Xenopus oocytes injected with cRNA", "assay": "cell-based"}, "Rat α3β4 nAChR": {"target": "T4, Rat α3β4 nAChR (Rattus norvegicus, UniProt P04757+P12392)", "T4 construct": "expressed in transfected cells; host or cells: Xenopus oocytes injected with cRNA", "T4 sequence (P04757 26-499 limits assumed)": "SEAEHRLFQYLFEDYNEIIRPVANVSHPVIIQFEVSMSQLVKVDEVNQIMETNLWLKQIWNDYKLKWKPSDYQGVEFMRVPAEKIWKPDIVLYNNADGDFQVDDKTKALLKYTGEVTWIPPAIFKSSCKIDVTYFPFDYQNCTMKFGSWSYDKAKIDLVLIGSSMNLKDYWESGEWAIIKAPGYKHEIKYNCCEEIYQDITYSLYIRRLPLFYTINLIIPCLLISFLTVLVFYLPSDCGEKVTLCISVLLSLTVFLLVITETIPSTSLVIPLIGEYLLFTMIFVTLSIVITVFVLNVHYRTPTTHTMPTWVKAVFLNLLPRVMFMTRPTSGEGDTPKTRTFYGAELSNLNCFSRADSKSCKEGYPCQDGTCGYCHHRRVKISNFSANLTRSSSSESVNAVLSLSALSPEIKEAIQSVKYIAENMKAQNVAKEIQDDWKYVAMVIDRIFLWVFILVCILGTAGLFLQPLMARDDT", "T4 sequence (P12392 21-495 limits assumed)": "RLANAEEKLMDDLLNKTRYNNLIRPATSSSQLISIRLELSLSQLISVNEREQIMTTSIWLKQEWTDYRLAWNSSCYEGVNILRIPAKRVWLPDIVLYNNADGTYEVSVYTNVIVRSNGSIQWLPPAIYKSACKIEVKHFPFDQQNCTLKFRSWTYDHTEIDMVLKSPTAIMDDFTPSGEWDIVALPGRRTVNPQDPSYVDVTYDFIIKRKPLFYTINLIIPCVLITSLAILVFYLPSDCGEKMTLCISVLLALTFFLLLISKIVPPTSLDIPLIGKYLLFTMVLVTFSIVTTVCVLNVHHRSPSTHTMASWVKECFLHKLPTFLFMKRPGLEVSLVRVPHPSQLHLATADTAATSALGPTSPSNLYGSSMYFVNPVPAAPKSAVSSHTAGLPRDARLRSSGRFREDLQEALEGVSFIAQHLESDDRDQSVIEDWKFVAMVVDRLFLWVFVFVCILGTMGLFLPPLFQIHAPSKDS", "assay": "cell-based"}, "Rat α3β2 nAChR": {"target": "T5, Rat α3β2 nAChR (Rattus norvegicus, UniProt P04757+P12390)", "T5 construct": "expressed in transfected cells; host or cells: Xenopus oocytes injected with cRNA", "T5 sequence (P04757 26-499 limits assumed)": "as the sequence (P04757 26-499 limits assumed) above", "T5 sequence (P12390 25-500 limits assumed)": "as the sequence (P12390 25-500 limits assumed) above", "assay": "cell-based"}, "Rat α4β4 nAChR": {"target": "T6, Rat α4β4 nAChR (Rattus norvegicus, UniProt P09483+P12392)", "T6 construct": "expressed in transfected cells; host or cells: Xenopus oocytes injected with cRNA", "T6 sequence (P09483 31-630 limits assumed)": "as the sequence (P09483 31-630 limits assumed) above", "T6 sequence (P12392 21-495 limits assumed)": "as the sequence (P12392 21-495 limits assumed) above", "assay": "cell-based"}, "Rat α6/α3β4 nAChR": {"target": "T7, Rat α6/α3β4 nAChR (Rattus norvegicus, UniProt P04757+P12392+P43143)", "T7 construct": "expressed in transfected cells; host or cells: Xenopus oocytes injected with cRNA", "T7 sequence (P43143+P04757 fused with the stated changes)": "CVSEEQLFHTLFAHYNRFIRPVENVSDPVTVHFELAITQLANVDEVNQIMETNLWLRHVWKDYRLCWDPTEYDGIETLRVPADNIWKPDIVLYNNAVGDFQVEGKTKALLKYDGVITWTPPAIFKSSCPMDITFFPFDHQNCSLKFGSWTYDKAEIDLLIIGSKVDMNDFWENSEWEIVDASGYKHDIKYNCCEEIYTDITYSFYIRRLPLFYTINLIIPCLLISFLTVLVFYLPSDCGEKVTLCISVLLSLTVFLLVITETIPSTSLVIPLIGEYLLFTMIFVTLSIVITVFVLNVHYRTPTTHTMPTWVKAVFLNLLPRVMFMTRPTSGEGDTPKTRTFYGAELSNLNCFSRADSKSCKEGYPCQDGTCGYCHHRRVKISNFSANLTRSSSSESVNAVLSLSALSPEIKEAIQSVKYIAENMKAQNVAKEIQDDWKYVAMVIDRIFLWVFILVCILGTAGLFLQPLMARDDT", "T7 sequence (P12392 21-495)": "as the sequence (P12392 21-495 limits assumed) above", "assay": "cell-based"}, "Rat α7 nAChR": {"target": "T8, Rat α7 nAChR (Rattus norvegicus, UniProt Q05941)", "T8 construct": "expressed in transfected cells; host or cells: Xenopus oocytes injected with cRNA", "T8 sequence (Q05941 23-502 limits assumed)": "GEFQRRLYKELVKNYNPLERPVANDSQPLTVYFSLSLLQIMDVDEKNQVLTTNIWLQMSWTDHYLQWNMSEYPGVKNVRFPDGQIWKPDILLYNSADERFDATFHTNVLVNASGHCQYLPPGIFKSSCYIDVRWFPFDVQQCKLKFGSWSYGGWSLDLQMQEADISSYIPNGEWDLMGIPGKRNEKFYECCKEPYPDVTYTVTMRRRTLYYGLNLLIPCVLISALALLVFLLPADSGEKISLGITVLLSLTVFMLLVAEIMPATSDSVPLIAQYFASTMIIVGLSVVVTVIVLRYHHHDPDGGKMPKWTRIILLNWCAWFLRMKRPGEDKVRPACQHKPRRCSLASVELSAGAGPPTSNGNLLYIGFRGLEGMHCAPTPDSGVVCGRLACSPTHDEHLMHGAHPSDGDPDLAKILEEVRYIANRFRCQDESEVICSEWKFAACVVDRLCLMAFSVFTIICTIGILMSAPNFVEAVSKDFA", "assay": "cell-based"}, "Rat α9α10 nAChR": {"target": "T9, Rat α9α10 nAChR (Rattus norvegicus, UniProt P43144+Q9JLB5)", "T9 construct": "expressed in transfected cells; host or cells: Xenopus oocytes injected with cRNA", "T9 sequence (P43144 26-479 limits assumed)": "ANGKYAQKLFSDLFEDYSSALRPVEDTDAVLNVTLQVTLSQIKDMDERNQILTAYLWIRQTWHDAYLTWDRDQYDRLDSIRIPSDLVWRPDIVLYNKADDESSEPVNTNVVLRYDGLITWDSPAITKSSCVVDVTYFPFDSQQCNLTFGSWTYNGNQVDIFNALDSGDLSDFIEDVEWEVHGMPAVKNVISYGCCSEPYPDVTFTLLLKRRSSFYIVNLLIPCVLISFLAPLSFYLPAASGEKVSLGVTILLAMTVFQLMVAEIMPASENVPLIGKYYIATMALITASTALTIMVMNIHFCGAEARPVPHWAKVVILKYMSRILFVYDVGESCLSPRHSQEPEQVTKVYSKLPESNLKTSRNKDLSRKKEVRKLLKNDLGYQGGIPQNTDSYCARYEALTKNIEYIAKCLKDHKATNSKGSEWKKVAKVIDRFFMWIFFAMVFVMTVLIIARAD", "T9 sequence (Q9JLB5 25-447 limits assumed)": "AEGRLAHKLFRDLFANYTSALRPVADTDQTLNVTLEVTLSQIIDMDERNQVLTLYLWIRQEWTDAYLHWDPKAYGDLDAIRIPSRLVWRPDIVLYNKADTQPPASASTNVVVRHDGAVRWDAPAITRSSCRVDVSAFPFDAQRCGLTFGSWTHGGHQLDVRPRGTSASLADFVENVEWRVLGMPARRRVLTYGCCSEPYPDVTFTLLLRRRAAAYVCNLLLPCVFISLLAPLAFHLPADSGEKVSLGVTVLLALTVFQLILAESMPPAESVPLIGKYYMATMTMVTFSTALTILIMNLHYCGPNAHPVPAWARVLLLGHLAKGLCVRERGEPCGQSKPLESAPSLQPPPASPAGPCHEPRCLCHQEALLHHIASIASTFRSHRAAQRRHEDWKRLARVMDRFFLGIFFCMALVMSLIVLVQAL", "assay": "cell-based"}, "Rat α2β4 nAChR": {"target": "T10, Rat α2β4 nAChR (Rattus norvegicus, UniProt P12389+P12392)", "T10 construct": "expressed in transfected cells; host or cells: Xenopus oocytes injected with cRNA", "T10 sequence (P12389 28-511 limits assumed)": "as the sequence (P12389 28-511 limits assumed) above", "T10 sequence (P12392 21-495 limits assumed)": "as the sequence (P12392 21-495 limits assumed) above", "assay": "cell-based"}, "α9α10 nAChR [1]": {"target": "T11, α9α10 nAChR (Rattus norvegicus, UniProt P43144+Q9JLB5)", "T11 construct": "expressed in transfected cells; host or cells: Xenopus oocytes injected with cRNA", "T11 sequence (P43144 26-479 limits assumed)": "as the sequence (P43144 26-479 limits assumed) above", "T11 sequence (Q9JLB5 25-447 limits assumed)": "as the sequence (Q9JLB5 25-447 limits assumed) above", "assay_type": "cell-based"}, "α6/α3β2β3 nAChR": {"system": "α6/α3β2β3 nAChR", "settings": "cited from earlier work"}, "α9α10 nAChR [2]": {"system": "α9α10 nAChR", "settings": "cited from earlier work"}, "GABAB receptors": {"system": "GABAB receptors", "settings": "cited from earlier work"}, "α3β4 nAChR": {"system": "α3β4 nAChR", "settings": "cited from earlier work"}}, "note": "Bridge positions count the residues as written; N and C are the ends. Peptide text beside a SMILES is read from it."}
{"compound": "CC(C)C[C@@H]1NC(=O)[C@@H](NC(=O)[C@H](CCCNC(=N)N)NC(=O)[C@@H](N)C(C)C)CSSC[C@@H](C(=O)N[C@H]2CSSC[C@@H](C(=O)N[C@H](C(=O)N[C@@H](Cc3ccc(O)cc3)C(=O)N[C@@H](Cc3ccc(O)cc3)C(=O)N[C@H](C(=O)N[C@@H](CCC(N)=O)C(=O)N[C@@H](CO)C(=O)N[C@@H](CCCNC(=N)N)C(=O)N[C@@H](CCC(=O)O)C(=O)O)[C@@H](C)O)C(C)C)NC(=O)[C@H](CCCNC(=N)N)NC(=O)[C@H](CO)NC(=O)[C@H](Cc3c[nH]cn3)NC(=O)[C@H](CCCNC(=N)N)NC(=O)[C@H](C)NC(=O)[C@H](Cc3ccccc3)NC(=O)[C@H](CO)NC(=O)[C@@H]3CCCN3C(=O)CNC(=O)[C@H](CCCCN)NC(=O)[C@H](CCC(N)=O)NC2=O)NC(=O)[C@@H]2CCCN2C(=O)[C@@H]2CCCN2C(=O)[C@H](CCCNC(=N)N)NC(=O)[C@H](Cc2ccccc2)NC(=O)[C@H](CC(C)C)NC(=O)[C@H](CCCCN)NC(=O)[C@H](CC(N)=O)NC(=O)[C@@H]2CCCN2C(=O)[C@H](CCC(N)=O)NC(=O)[C@H](C)NC(=O)CNC(=O)[C@H](CO)NC(=O)[C@H](CCCCN)NC(=O)[C@H](CCC(=O)O)NC1=O", "note": "[αB-VxXXIVA [1], [2]] (H-VRCLEKSGAQPNKLFRPPCCQKGPSFARHSRCVYYTQSRE-OH; disulfide 3-19, 20-32)", "values": [{"measurement": "IC50", "setting": "Rat α2β2 nAChR", "result": 23.4, "unit": "µM"}, {"measurement": "IC50", "setting": "Rat α4β2 nAChR", "result": "> 30", "unit": "µM"}, {"measurement": "IC50", "setting": "Rat α6/α3β2β3 nAChR", "result": 12.2, "unit": "µM"}, {"measurement": "IC50", "setting": "Rat α3β4 nAChR", "result": "> 30", "unit": "µM"}, {"measurement": "IC50", "setting": "Rat α3β2 nAChR", "result": "> 30", "unit": "µM"}, {"measurement": "IC50", "setting": "Rat α4β4 nAChR", "result": "> 30", "unit": "µM"}, {"measurement": "IC50", "setting": "Rat α6/α3β4 nAChR", "result": 30.1, "unit": "µM"}, {"measurement": "IC50", "setting": "Rat α7 nAChR", "result": "> 30", "unit": "µM"}, {"measurement": "IC50", "setting": "Rat α9α10 nAChR", "result": 1.2, "unit": "µM"}, {"measurement": "IC50", "setting": "Rat α2β4 nAChR", "result": "> 30", "unit": "µM"}]}
{"compound": "CC(C)C[C@@H]1NC(=O)[C@@H](NC(=O)[C@H](CCCNC(=N)N)NC(=O)[C@@H](N)C(C)C)CSSC[C@@H]2NC(=O)[C@H](CSSC[C@@H](C(=O)N[C@H](C(=O)N[C@@H](Cc3ccc(O)cc3)C(=O)N[C@@H](Cc3ccc(O)cc3)C(=O)N[C@H](C(=O)N[C@@H](CCC(N)=O)C(=O)N[C@@H](CO)C(=O)N[C@@H](CCCNC(=N)N)C(=O)N[C@@H](CCC(=O)O)C(=O)O)[C@@H](C)O)C(C)C)NC(=O)[C@H](CCCNC(=N)N)NC(=O)[C@H](CO)NC(=O)[C@H](Cc3c[nH]cn3)NC(=O)[C@H](CCCNC(=N)N)NC(=O)[C@H](C)NC(=O)[C@H](Cc3ccccc3)NC(=O)[C@H](CO)NC(=O)[C@@H]3CCCN3C(=O)CNC(=O)[C@H](CCCCN)NC(=O)[C@H](CCC(N)=O)NC2=O)NC(=O)[C@@H]2CCCN2C(=O)[C@@H]2CCCN2C(=O)[C@H](CCCNC(=N)N)NC(=O)[C@H](Cc2ccccc2)NC(=O)[C@H](CC(C)C)NC(=O)[C@H](CCCCN)NC(=O)[C@H](CC(N)=O)NC(=O)[C@@H]2CCCN2C(=O)[C@H](CCC(N)=O)NC(=O)[C@H](C)NC(=O)CNC(=O)[C@H](CO)NC(=O)[C@H](CCCCN)NC(=O)[C@H](CCC(=O)O)NC1=O", "note": "[αB-VxXXIVA [1], [3]] (H-VRCLEKSGAQPNKLFRPPCCQKGPSFARHSRCVYYTQSRE-OH; disulfide 3-20, 19-32)", "values": [{"measurement": "IC50", "setting": "Rat α2β2 nAChR", "result": "> 30", "unit": "µM"}, {"measurement": "IC50", "setting": "Rat α4β2 nAChR", "result": "> 30", "unit": "µM"}, {"measurement": "IC50", "setting": "Rat α6/α3β2β3 nAChR", "result": "> 30", "unit": "µM"}, {"measurement": "IC50", "setting": "Rat α3β4 nAChR", "result": "> 30", "unit": "µM"}, {"measurement": "IC50", "setting": "Rat α3β2 nAChR", "result": "> 30", "unit": "µM"}, {"measurement": "IC50", "setting": "Rat α4β4 nAChR", "result": "> 30", "unit": "µM"}, {"measurement": "IC50", "setting": "Rat α6/α3β4 nAChR", "result": "> 30", "unit": "µM"}, {"measurement": "IC50", "setting": "Rat α7 nAChR", "result": "> 30", "unit": "µM"}, {"measurement": "IC50", "setting": "Rat α9α10 nAChR", "result": 3.9, "unit": "µM"}, {"measurement": "IC50", "setting": "Rat α2β4 nAChR", "result": "> 30", "unit": "µM"}]}
{"compound": "CC(C)C[C@@H]1NC(=O)[C@@H](NC(=O)[C@H](CCCNC(=N)N)NC(=O)[C@@H](N)C(C)C)CSSC[C@@H](C(=O)N[C@H](C(=O)N[C@@H](Cc2ccc(O)cc2)C(=O)N[C@@H](Cc2ccc(O)cc2)C(=O)N[C@H](C(=O)N[C@@H](CCC(N)=O)C(=O)N[C@@H](CO)C(=O)N[C@@H](CCCNC(=N)N)C(=O)N[C@@H](CCC(=O)O)C(=O)O)[C@@H](C)O)C(C)C)NC(=O)[C@H](CCCNC(=N)N)NC(=O)[C@H](CO)NC(=O)[C@H](Cc2c[nH]cn2)NC(=O)[C@H](CCCNC(=N)N)NC(=O)[C@H](C)NC(=O)[C@H](Cc2ccccc2)NC(=O)[C@H](CO)NC(=O)[C@@H]2CCCN2C(=O)CNC(=O)[C@H](CCCCN)NC(=O)[C@H](CCC(N)=O)NC(=O)[C@@H]2CSSC[C@H](NC(=O)[C@@H]3CCCN3C(=O)[C@@H]3CCCN3C(=O)[C@H](CCCNC(=N)N)NC(=O)[C@H](Cc3ccccc3)NC(=O)[C@H](CC(C)C)NC(=O)[C@H](CCCCN)NC(=O)[C@H](CC(N)=O)NC(=O)[C@@H]3CCCN3C(=O)[C@H](CCC(N)=O)NC(=O)[C@H](C)NC(=O)CNC(=O)[C@H](CO)NC(=O)[C@H](CCCCN)NC(=O)[C@H](CCC(=O)O)NC1=O)C(=O)N2", "note": "[αB-VxXXIVA [1], [4]] (H-VRCLEKSGAQPNKLFRPPCCQKGPSFARHSRCVYYTQSRE-OH; disulfide 3-32, 19-20)", "values": [{"measurement": "IC50", "setting": "Rat α4β2 nAChR", "result": "> 30", "unit": "µM"}, {"measurement": "IC50", "setting": "Rat α3β4 nAChR", "result": "> 30", "unit": "µM"}, {"measurement": "IC50", "setting": "Rat α7 nAChR", "result": "> 30", "unit": "µM"}, {"measurement": "IC50", "setting": "Rat α9α10 nAChR", "result": "> 30", "unit": "µM"}, {"measurement": "activity at nAChRs (in words)", "setting": "Rat α9α10 nAChR", "result": "inactive"}, {"measurement": "block of α9α10 current", "setting": "Rat α9α10 nAChR", "result": "less than 15%"}, {"measurement": "block in the presence of Ba++ (in words)", "setting": "α9α10 nAChR [1]", "result": "did not potently block"}]}
{"compound": "α-Conotoxin Vc1.1", "values": [{"measurement": "IC50", "setting": "α6/α3β2β3 nAChR", "result": 0.14, "unit": "µM"}, {"measurement": "IC50", "setting": "α9α10 nAChR [2]", "result": 0.005, "unit": "µM"}, {"measurement": "activity at GABAB receptors", "setting": "GABAB receptors", "result": "activate GABAB receptors"}, {"measurement": "IC50", "setting": "α3β4 nAChR", "result": 4.2, "unit": "µM"}]}
